Results from patent publication US20170112861A1, “DRUG DELIVERY ENHANCER COMPRISING SUBSTANCE FOR ACTIVATING LYSOPHOSPHOLIPID RECEPTORS” (Osaka University, priority 2014, published 2017).

Assays:
Assay type in all cases: in vivo
[1] = system: Mouse colon cancer colon 26 cells; assay: Combined administration of LPA and 5-FU, tumor growth in colon 26 cell tumor-bearing mice; conditions: colon 26 tumors in BALB/c mice; LPA 3 mg/kg i.p. once daily for seven days; 5-FU 100 mg/kg i.p. on days 7 and 14
Experimental: (§1) LLC cells were subcutaneously inoculated into C57BL/6 NCrSlc mice aged 8 weeks in the same manner as in Example 1. An LPA administration solution was prepared in the same manner as in Example 1. The anticancer drug used was 5-FU (Kyowa Hakko Kirin Co., Ltd.). The 5-FU was prepared as a solution in physiological saline (Otsuka Pharmaceutical Co., Ltd.). On day 7 post-inoculation of LLC cells, mice with a tumor volume of 30 to 50 mm^3 were selected and subjected to the test. The mice were divided into four groups: control group, 5-FU group, LPA group and 5-FU/LPA group (n=3). LPA (3 mg/kg in 100 μL PBS) or 5-FU (100 mg/kg in 100 μL PBS) or PBS (100 μL) was administered intraperitoneally. To 5-FU/LPA group, both LPA and 5-FU were administered intraperitoneally. LPA and PBS were administered once daily for consecutive seven days. 5-FU was administered twice in total, once a week for two weeks (on days 7 and 14 post-inoculation). The tumor size was measured over time after start of administration. The tumor volume was calculated by the formula: volume=length×width×height×0.5. Mice at 2 weeks after start of administration were photographed with a digital camera under anesthesia with pentobarbital. The tumors were harvested and photographed with a digital camera.
Mouse colon cancer colon 26 cells were used. […]

[2] = system: lumen of tumor blood vessels of LLC cell tumors; assay: Structural changes in lumen of tumor blood vessels (scanning electron microscopy); conditions: LLC tumor-bearing mice, LPA 3 mg/kg i.p., 24 hours after administration
Experimental: LLC cells were subcutaneously inoculated into C57BL/6 NCrSlc mice aged 8 weeks (females, SLC, Inc.) in the same manner as in Example 1. An LPA administration solution was prepared in the same manner as in Example 1. Mice on day 9 post-inoculation of LLC cells (individuals with a tumor volume of 60 to 80 mm^3) were subjected to the experiment. The mice were divided into two groups: control group and LPA group (n=3). LPA (3 mg/kg in 100 μL PBS) or PBS (100 μL) was administered intraperitoneally. At 24 hours after LPA or PBS administration, mice were perfusion fixed under anesthesia with pentobarbital (Kyoritsu Seiyaku Corporation). The fixative used was 0.1 M phosphate buffer (pH 7.4) containing 2% formaldehyde and 2.5% glutaraldehyde. Tumors were then harvested and immersed in the same fixative as that used for perfusion and shaken at 4° C. overnight. The specimens were further immersed in 0.1 M phosphate buffer (pH 7.4) containing 1% osmium tetroxide and 0.5% potassium ferrocyanide. The specimens were dehydrated in an ascending series of ethanol, then the alcohol was replaced with t-butyl alcohol and the specimens were freeze-dried.

[3] = system: tumor blood vessels of LLC cell tumors; assay: Structural changes in tumor blood vessels after LPA administration (anti-CD31 immunostaining, AngioTool); conditions: LLC tumor-bearing mice, LPA 3 mg/kg i.p.
Experimental: Lewis lung cancer cell line (hereinafter called LLC cells) was used as the mouse cancer cell line. LLC cells (1×10^6 cells in 100 μL PBS per animal) were subcutaneously injected into C57BL/6 NCrSlc mice aged 8 weeks (females, SLC, Inc.).
The LPA used was 18:1 LPA (Avanti Polar Lipids, Inc.). A 10 mM LPA stock solution was prepared using 50% ethanol and the solution was stored at −30° C. Before use, the LPA stock solution was thawed and homogenized with an ultrasonic cleaner (SND Co., Ltd.) for 1 minute. The solution was diluted in PBS before administration so that the concentration of LPA was 3 mg/kg in 100 μL PBS. The prepared solution was used for LPA administration.
Day 9 post-inoculation of LLC cells, mice that developed a tumor with a volume of 60 to 80 mm^3 (volume=length×width×height×0.5) were selected and used for the test. Four groups each of three mice were provided: control group, LPA/6 hr group, LPA/12 hr group and LPA/24 hr group. LPA was intraperitoneally administered to the mice of the LPA groups at a dose of 3 mg/kg in 100 μL PBS. The tumors were harvested before LPA administration (control group), and at 6, 12 and 24 hours after LPA administration. The tumors were immersed in 4% paraformaldehyde (PFA)/PBS and shaken at 4° C. overnight for fixation. The tumors were washed with cold PBS (4° C.). Washing was continued for 6 hours, and PBS was renewed every 30 minutes. The tumors were immersed in 15% sucrose/PBS and shaken at 4° C. for 3 hours. The tumors were then immersed in 30% sucrose/PBS and shaken at 4° C. for 3 hours. The tumors were embedded in O.C.T compound (Tissue-Tek) and frozen at −80° C. for 3 days or longer.
The tumors embedded in O.C.T. compound were sectioned at 40 μm with a cryostat (Leica). The sections were placed on glass slides, and air-dried for 2 hours with a drier. The sections were encircled with a liquid blocker. […] The vessel length was measured in the photographs using the vascular structure analysis software AngioTool.

[4] = system: LLC cells; assay: Combined administration of LPA and 5-FU, tumor growth in LLC cell tumor-bearing mice
Experimental: as §1

Substance: lysophosphatidic acid [LPA]
- tumor growth (tumor volume) [1]: some inhibitory effects on tumor growth as compared with the control, up to day 17 post-inoculation
- intraluminal surface of tumor blood vessels [2]: the intraluminal surface of the blood vessels was very smooth
- structure of tumor blood vessels (vascular network) ([3]; 12 and 24 hours after administration): the formation of a fine vascular network similar to that in normal tissues was observed
- structure of tumor blood vessels (vascular network) ([3]; 6 hours after administration): the connection of the blood vessels was observed
- average length of blood vessels (AngioTool) ([3]; vs before administration): the length of blood vessels was increased
- tumor growth (tumor volume) ([4]; LLC tumors, LPA 3 mg/kg i.p. once daily for seven days, 5-FU 100 mg/kg i.p. on days 7 and 14): some inhibitory effects on tumor growth as compared with the control
- appearance of tumors (blood flow) ([4]; LPA alone 3 mg/kg i.p. once daily for seven days): the tumors appeared reddish, indicating an increase in the blood flow
